Test results as given in patent EP2735303A1, “Hair growth compositions and methods” (Pilosciences, priority 2012, dated 2014).

How the values were obtained:
[1] = tested on: isolated human hair follicles; assay: Hair growth of isolated human hair follicles maintained in vitro (morphometric study); type: cell-based; conditions: versus no application and Minoxidil 2% 10 µmol; application 2h00 at 37°C; length at D0, D4, D6, D8
Experimental: Hair growth is measured using standard morphometric studies on isolated human hair follicles maintained in vitro (Philpott, 1999). Hair follicles are micro-dissected in a human scalp and maintained in a culture medium. Hair follicles in anagen phase are selected for the study. Each tested group is composed of 10-12 hair follicles.

[2] = tested on: human skin explants; assay: Morphology of the hair follicle in human skin explants ex vivo after topical application (histology); type: cell-based; set-up: key to Upper part (quotation of morphological alterations) / Sebaceous gland (quotation of morphological alterations): -: no alteration; +: weak; ++: moderate; +++: significant; ++++: very significant; +++++: strong
Experimental: Anti-HGP antibodies were produced (see example A) or obtained from commercially available sources, and investigated for their ability to inhibit body hair growth ex vivo using human skin explants.
The activity of the antibodies was assessed based on their effect on the morphology and growth of the body hair.
The activity of keratinase A (Sigma) was investigated in parallel. Eflornithin (Calbiochem) was used as a reference.
40 explants of a diameter of about 11 mm (± 1 mm) were obtained by abdominoplasty from 2 men. The explants were placed in survival in the BEM (BIO-EC's Explants Medium) at 37° C in a humid atmosphere enriched with 5% CO2.
The treatment was performed at D0, D1, D4, D6 and D8 by topical application of 5 µl of diluted antibody used at final concentrations of 30 to 100 µg/mL in PBS. Eflornithin was used at a concentration of 100 mg/mL and keratinase at 20 mg/mL. A negative control experiment was performed using PBS only.
At D0, T0 lot explants were removed and cut in half. Half was fixed in buffered formalin and the other half was frozen at -80 ° C. A D8, 2 explants from each batch were taken and treated in the same manner.
After 24 hours of fixation in buffered formalin, the samples were dried and impregnated with paraffin using an automatic dehydration Leica TP 1010 according to the procedure MO-H-149, according to our procedure using a station coating Leica EG 1160. Sections of 5 microns were performed, using a microtome kind Minot, Leica RM 2125 and mounted on silanized glass slides Superfrost ® plus. Microscopic observations were performed by microscopy optical transmission. The shots were taken with a Leica Orthoplan DMLB or with a digital camera Olympus DP72 driven software acquisition and archiving Olympus CellD. The morphology was examined on paraffin sections stained with Masson's trichrome Goldner variant.

NCCC[C@](N)(C(=O)O)C(F)F [R1, α-difluoromethylornithine]
Hair growth compared to Control Group 0 and to Control Group M [1]: significant hair growth retardation | Bulb: morphology ([2]; D8, topical application): comparable to that observed in the untreated group D8 | Lower part of the hair follicle: morphology ([2]; D8, topical application): very slight cell alterations | Midsection, sebaceous glands: morphology of inner and outer root sheaths ([2]; D8, topical application): clear cellular alterations | Upper part, near the infundibulum: morphology of the epithelial sheaths ([2]; D8, topical application): sharp cellular alterations | morphology of the epidermis ([2]; D8, topical application): slightly altered with a slight spongiosis | Sebaceous gland (quotation of morphological alterations) ([2]; sebaceous gland region of the hair follicle, topical application D0, D1, D4, D6, D8, antibodies 30 to 100 µg/mL in PBS, Eflornithin 100 mg/mL, keratinase 20 mg/mL, D8): ++++ | Upper part (quotation of morphological alterations) ([2]; upper part of the hair follicle near the infundibulum, topical application D0, D1, D4, D6, D8, antibodies 30 to 100 µg/mL in PBS, Eflornithin 100 mg/mL, keratinase 20 mg/mL, D8): ++++
